# The source made the active and inactive calls. How the calls were made is not given here.
# Target: Influenza A virus M2 proton channel (A/TW/4845/1999 H1N1)
# Assay: NMR binding screen, influenza A virus M2 proton channel, Kd (AID 1549)
# Settings: M2 protein
row,Structure (SMILES),Kd
1,Cc1occc(=O)c1O,> 4 mM (inactive)
2,CC1=C(CCC(=O)O)c2cc3nc(cc4[nH]c(cc5[nH]c(cc1n2)c(C)c5C(C)O)c(C)c4C(C)O)C(C)=C3CCC(=O)O (centres undefined),> 4 mM (inactive)
3,O=C(c1ccco1)N1C(=O)c2cccc3cccc1c23,> 4 mM (inactive)
4,CN1CCOc2cc(C(=O)O)ccc21,> 4 mM (inactive)
5,O=C1NC(=Nc2ccccc2Cl)SC1(CO)CO,> 4 mM (inactive)
6,O=C(O)c1ccc2c(c1)OCCO2,> 4 mM (inactive)
7,CCOc1ccccc1C(=O)NC1=NCCS1,> 4 mM (inactive)
8,Nc1ccc2nccnc2c1,> 4 mM (inactive)
9,CCOC(=O)C1C(C=C(C)C)C1(C)C (centres undefined),> 4 mM (inactive)
10,O=C(Nc1nccs1)c1cccnc1,> 4 mM (inactive)
11,Nc1ccc2sccc2c1,> 4 mM (inactive)
12,CC(=O)O[C@@H]1CC2C(C)(C)C(=O)[C@@H]3O[C@@H]3[C@]2(C)C2CC[C@]3(C)C(=CC(=O)O[C@H]3c3ccoc3)[C@@]21C (some centres undefined),> 4 mM (inactive)
13,O=C(COc1ccccc1Cl)N1CCCC1,> 4 mM (inactive)
14,O=C(Nc1cccc(Cl)c1)c1ccncc1,> 4 mM (inactive)
15,Cc1cc(=O)n2[nH]c(N)nc2n1,> 4 mM (inactive)
16,Cc1c(C(=O)Nc2cnccn2)oc2ccccc12,> 4 mM (inactive)
17,N#CCSc1nnc2ccc3ccccc3n12,> 4 mM (inactive)
18,Cc1cccc(N2CCN(C(=O)c3ccncc3)CC2)c1C,> 4 mM (inactive)
19,O=C(O)c1cccc(-n2cccc2)c1,> 4 mM (inactive)
20,CC(=O)NC(=S)Nc1ccc(N(C)C(C)=O)cc1,> 4 mM (inactive)

row,Structure (SMILES),Kd
1,N=c1c2c3c(sc2ncn1N)CCCC3,> 4 mM (inactive)
2,Nc1ccn(C2O[C@H](CO)[C@@H](O)[C@H]2O)c(=O)n1 (some centres undefined),> 4 mM (inactive)
3,Nc1ncnc(NCCCO)c1[N+](=O)[O-],> 4 mM (inactive)
4,O=C1CNCc2[nH]c3ccccc3c2N1c1ccccc1,> 4 mM (inactive)
5,O=C(COc1ccccc1O)NCCO,> 4 mM (inactive)
6,CC1=C2C(=CO[C@H](C)[C@H]2C)C(=O)C(C(=O)O)=C1O,> 4 mM (inactive)
7,c1ccc2[nH]c(SCc3cscn3)nc2c1,> 4 mM (inactive)
8,O=C(O)CNS(=O)(=O)c1cccs1,> 4 mM (inactive)
9,Cc1nc2ccc(C(=O)O)cc2[nH]1,> 4 mM (inactive)
10,CCCn1c(S(=O)(=O)O)nc2ccccc21,> 4 mM (inactive)
11,O=C(CSc1nnc2ccccn12)N1CCOCC1,> 4 mM (inactive)
12,O=C(c1ccccc1)c1ccccc1C(=O)N1CCCC1,> 4 mM (inactive)
13,Nc1ccc(-c2cnco2)cc1,> 4 mM (inactive)
14,O=C(Nc1ccccc1[N+](=O)[O-])c1ccc(=O)[nH]n1,> 4 mM (inactive)
15,COn1c(=O)c(C)[n+]([O-])c2ccccc21,> 4 mM (inactive)
16,NS(=O)(=O)c1ccc(NC(=O)c2cccs2)cc1,> 4 mM (inactive)
17,COCC(=O)N1CCCc2ccccc21,> 4 mM (inactive)
18,CCN1CCC2(CC1)CC1CC3C=CC1(CN2C(C)=O)O3 (centres undefined),> 4 mM (inactive)
19,O=C(O)Cn1cc(C(=O)C2CC2)c2ccccc21,> 4 mM (inactive)
20,C=CCSCC=C,> 4 mM (inactive)

row,Structure (SMILES),Kd
1,CC1=C(C(N)=O)C(c2ccccc2)NC(=O)N1 (centres undefined),> 4 mM (inactive)
2,CC(=O)NC1C(=O)Nc2c(C)cc(C)cc21 (centres undefined),> 4 mM (inactive)
3,Cc1nc(NC2=NCCC(=O)N2)nc2ccccc12,> 4 mM (inactive)
4,CC(=O)Nc1ccc(C(=O)NC2=NCCS2)cc1,> 4 mM (inactive)
5,NC(=O)CN1C(=O)c2cccc3cccc1c23,> 4 mM (inactive)
6,CC(=O)Nc1ccc(C)cc1NC(C)=O,> 4 mM (inactive)
7,Cc1ccc(=O)[nH]c1,> 4 mM (inactive)
8,Nc1ncnc2c1ncn2CCN1CCCCC1,> 4 mM (inactive)
9,Cn1c(=O)c2c(ncn2CCN)n(C)c1=O,> 4 mM (inactive)
10,Nc1cc(=O)[nH]c(=S)n1CCc1ccccc1,> 4 mM (inactive)
11,O=C(c1ccncc1)N1CCN(C(=O)c2ccncc2)CC1,> 4 mM (inactive)
12,O=C(NCc1ccco1)c1nc2ncccn2n1,> 4 mM (inactive)
13,NCCCCN,> 4 mM (inactive)
14,NC(=O)NC1C=CS(=O)(=O)C1 (centres undefined),> 4 mM (inactive)
15,Cn1nnc2c(Cl)ncnc21,> 4 mM (inactive)
16,c1coc(CNc2ncnc3nc[nH]c23)c1,> 4 mM (inactive)
17,O=C(O)c1ccc(-n2cncn2)cc1,> 4 mM (inactive)
18,CS(=O)(=O)c1cccc(C(=O)Nc2nccs2)c1,> 4 mM (inactive)
19,O=C1CCC(=O)N1c1cccnc1,> 4 mM (inactive)

# Source: PubChem BioAssay AID1549 (Sanford-Burnham Center for Chemical Genomics, 2009)
